From PubChem BioAssay (NCI)
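Assay format: 96-well plates, 48-hour exposure. TGI: total growth inhibition.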

Assays:
Experiment in all cases: inhibition of tumour cell growth, NCI panel, 48 h
MALME-3M melanoma = test system: MALME-3M melanoma
HOP-92 NSCLC = test system: HOP-92 NSCLC
OVCAR-4 ovarian = test system: OVCAR-4 ovarian
SK-OV-3 ovarian = test system: SK-OV-3 ovarian
SK-MEL-5 melanoma = test system: SK-MEL-5 melanoma
SK-MEL-2 melanoma = test system: SK-MEL-2 melanoma
HL-60(TB) leukemia = test system: HL-60(TB) leukemia
K-562 leukemia = test system: K-562 leukemia
HCC-2998 colon = test system: HCC-2998 colon
HCT-116 colon = test system: HCT-116 colon

Compound	TGI (MALME-3M melanoma)	TGI (HOP-92 NSCLC)	TGI (OVCAR-4 ovarian)	TGI (SK-OV-3 ovarian)	TGI (SK-MEL-5 melanoma)	TGI (SK-MEL-2 melanoma)	TGI (HL-60(TB) leukemia)	TGI (K-562 leukemia)	TGI (HCC-2998 colon)	TGI (HCT-116 colon)
CC1(C)Oc2ccc(NC(=O)CCC(N)C(=O)O)cc2O1 (stereo not given)	> 100 µM	> 100 µM	> 100 µM	> 100 µM	> 100 µM	> 100 µM	> 100 µM	> 100 µM	> 100 µM	> 100 µM
CC(=O)c1cc2c(s1)C(=O)c1ccccc1C2=O	2.65 µM	21.6 µM	57 µM	> 80.3 µM	0.588 µM	15.5 µM	> 100 µM	> 100 µM	18.3 µM	> 31.2 µM
CSc1cc(N)ccc1N=Nc1ccc(S(N)(=O)=O)cc1	84.4 µM	68.2 µM	> 100 µM	> 100 µM	30.6 µM	62.3 µM	82.8 µM	> 100 µM	> 100 µM	> 100 µM
COc1cc(S(=O)(=O)Nc2ccc(-c3csc(N4C(=O)CSC4c4ccccc4)n3)cc2)ccc1Cl (stereo not given)	> 100 µM	54.4 µM	> 100 µM	> 100 µM	> 100 µM	> 100 µM	55.7 µM	> 100 µM	42.4 µM	> 100 µM
CC1(COS(=O)(=O)OCC2(C)COS(=O)(=O)OC2)COS(=O)(=O)OC1	> 100 µM	> 63.8 µM	> 100 µM	> 100 µM	> 100 µM	> 100 µM	> 58 µM	> 100 µM	> 100 µM	> 100 µM
[N-]=[N+]=Nc1ccc(CNc2cc(=O)[nH]c(=O)[nH]2)cc1	> 100 µM	> 100 µM	> 100 µM	> 100 µM	> 100 µM	> 100 µM	> 100 µM	> 100 µM	> 100 µM	> 100 µM
COc1cc2c(cc1OC)-c1c3c(cc4c1[C@@H](C2)N(C)CC4)OCO3	20.1 µM	32.4 µM	22.8 µM	50.6 µM	19.3 µM	22 µM	29.9 µM	33.9 µM	23.8 µM	36.6 µM
Cn1nc(S(N)(=O)=O)s/c1=N/C(N)=S	> 100 µM	> 100 µM	> 100 µM	> 100 µM	> 100 µM	> 100 µM	> 100 µM	> 100 µM	> 100 µM	> 100 µM
Cc1c(NC2(C)C(=O)N(/N=C/c3ccccc3)N=C2c2ccccc2)n[nH]c1-c1ccccc1 (stereo not given)	> 100 µM	> 100 µM	> 100 µM	> 100 µM	> 100 µM	> 100 µM	> 100 µM	> 100 µM	> 100 µM	> 100 µM
O=C1C(Br)=C(c2ccccc2)S(=O)c2ccccc21 (stereo not given)	22.4 µM	36.8 µM	5.86 µM	32.9 µM	24.7 µM	33.8 µM	6.63 µM	11.8 µM	27.9 µM	20.4 µM
NC(N)=NS(=O)(=O)c1ccc(NC(=O)c2ccc3nc4ccccc4c(Nc4ccc(S(N)(=O)=O)cc4)c3c2)cc1	> 100 µM	> 100 µM	> 100 µM	> 100 µM	> 100 µM	> 100 µM	> 100 µM	> 100 µM	> 100 µM	> 100 µM
Cc1cc(=O)oc2cc(O)ccc12	> 100 µM	> 100 µM	> 100 µM	> 100 µM	> 100 µM	> 100 µM	> 100 µM	> 100 µM	> 100 µM	> 100 µM
COC(=O)C1(Cc2ccccc2)Cc2ccccc2C1	35.4 µM	46.3 µM	> 100 µM	> 100 µM	31.9 µM	25.8 µM	45.8 µM	52.3 µM	98.2 µM	49.8 µM
